Assay results from ChEMBL document CHEMBL1201862, “PubChem BioAssay data set” (2004).
Active and inactive are the calls of the source.

Columns and labels:
[1] = alpha-synuclein stem-loop luciferase translation blockers – H4 neuroglioma cells, luminescence, confirmation (AID 1988); format: functional, cell-based
[2] = luciferase reporter signal suppression in cells – H4 neuroglioma cells, luminescence, dose response (AID 1990); format: functional, cell-based
[3] = Luminescence Cell-Based Dose Response HTS to Identify Inhibitors of 5'UTR Stem-Loop Driven Prion Protein mRNA Translation in H4 Neuroglioblastoma Cells. [Related pubchem assays: 1827 (Project Summary), 1813 (Primary HTS)]; format: functional
[4] = target: T1, High affinity choline transporter 1 (Homo sapiens, UniProt Q9GZV3); assay: human choline transporter blockers, potency – cell-based, 5-point CRC, membrane potential dye, dose response (AID 504840); format: functional
T1 sequence (Q9GZV3 whole entry): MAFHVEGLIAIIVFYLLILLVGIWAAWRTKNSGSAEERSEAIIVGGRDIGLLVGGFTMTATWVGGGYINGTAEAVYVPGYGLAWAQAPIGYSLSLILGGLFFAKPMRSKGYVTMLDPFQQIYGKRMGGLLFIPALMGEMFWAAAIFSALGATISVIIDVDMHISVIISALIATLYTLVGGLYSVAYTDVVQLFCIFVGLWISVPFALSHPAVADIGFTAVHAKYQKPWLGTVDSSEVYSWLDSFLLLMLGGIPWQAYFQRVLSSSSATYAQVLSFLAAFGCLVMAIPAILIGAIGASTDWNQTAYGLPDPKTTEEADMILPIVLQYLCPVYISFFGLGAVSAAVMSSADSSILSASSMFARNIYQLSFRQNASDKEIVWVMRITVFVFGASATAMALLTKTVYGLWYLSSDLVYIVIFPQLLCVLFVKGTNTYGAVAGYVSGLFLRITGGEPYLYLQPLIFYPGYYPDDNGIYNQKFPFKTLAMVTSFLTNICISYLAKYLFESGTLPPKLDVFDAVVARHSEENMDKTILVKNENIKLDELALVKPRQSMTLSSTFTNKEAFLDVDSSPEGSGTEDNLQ

[5] = Luminescence Cell-Based Dose Confirmation HTS to Identify Inhibitors of Platelet Dense Granule Release. [Related pubchem assays: 1663 (Primary HTS), 1678 (Summary of Project)]; format: functional
[6] = target: Luciferin 4-monooxygenase (Photinus pyralis, UniProt P08659); assay: inhibition of purified Photinus pyralis luciferase – biochemical, luminescence, dose response (AID 1891)
Genome polyprotein = Genome polyprotein (dengue virus type 2, UniProt P29990); assay: flavivirus cap methylation enzyme inhibition – biochemical, confirmation dose response, primary screen (AID 588689); format: functional
[7] = target: T2, Polyadenylate-binding protein 1 (Homo sapiens, UniProt P11940); assay: MLLE domain peptide-binding blockers, IC50 – biochemical, fluorescence polarization, FITC-PAM2 peptide, dose response (AID 602259); format: functional; settings: read-out: IC50_Mean
[8] = target: T2, Polyadenylate-binding protein 1; assay: MLLE binding blockers, Cy5 peptide tracer – biochemical, fluorescence polarization, Cy5-PAM2 peptide, secondary, miRNA deadenylation inhibitor project, dose response (AID 602260); format: functional; settings: read-out: IC50_Mean
Nonstructural protein 1 = Nonstructural protein 1 (Influenza A virus, UniProt Q194T2); format: functional, Influenza A virus (A/California/07/2009(H1N1))
[9] = reduction of Shn3 3'UTR-driven luciferase in osteoblasts – cell-based, Clone20 osteoblasts, firefly luciferase, cherry-picked, dose response (AID 624132); format: functional;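 also: firefly luciferase luminescence from reporter carrying the Shn3 3'UTR in osteoblasts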
[10] = non-specific 3'UTR reporter inhibition in Clone20-Shn3RL – cell-based, Renilla luciferase, cherry-picked, counter-screen for Shn3 inhibitor project, dose response (AID 624133); format: functional
[11] = viability of HCT116 lacking mutant beta-catenin – cell-based, human colon tumor, dose response (AID 1045); format: functional;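 also: HCT116 colon tumor cells with beta catenin knocked out; cells exposed to compound for 60 hours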
[12] = viability of PTEN-deleted HCT116 cells – cell-based, HCT116 PTEN knockout, dose response (AID 1047); format: functional;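 also: HCT116 colon tumor cells with PTEN knocked out; cells exposed to compound for 60 hours before readout; potency for loss of cell viability measured by luminescence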
[13] = blockers of HIV-1 envelope-mediated cell-cell fusion – cherry-pick, dose response (AID 652057); format: functional, cell-based
[14] = HIV-1 AD8 envelope cell-cell fusion blockers – cherry-pick, dose response (AID 652062); format: functional, cell-based;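 also: luciferase signal from cell-cell fusion driven by HIV-1 clade B AD8 Env; potency is for inhibitors of fusion seen as a drop in luminescence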
[15] = blockers of HIV-1 ZM109 envelope-driven cell-cell fusion – HeLa effector, CEM target cells, luciferase, cherry-pick, dose response (AID 652058); format: functional, cell-based;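 also: luciferase signal from HIV-1 Env mediated cell-cell fusion of effector and target cells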
[16] = target: T3, Rac GTPase-activating protein 1 (Homo sapiens, UniProt Q9H0H5); assay: blockers of MgcRacGAP-driven Rac1 GTP hydrolysis – biochemical, ADP Hunter fluorescence, primary and confirmatory, confirmation (AID 624330); format: functional
T3 sequence (Q9H0H5 whole entry): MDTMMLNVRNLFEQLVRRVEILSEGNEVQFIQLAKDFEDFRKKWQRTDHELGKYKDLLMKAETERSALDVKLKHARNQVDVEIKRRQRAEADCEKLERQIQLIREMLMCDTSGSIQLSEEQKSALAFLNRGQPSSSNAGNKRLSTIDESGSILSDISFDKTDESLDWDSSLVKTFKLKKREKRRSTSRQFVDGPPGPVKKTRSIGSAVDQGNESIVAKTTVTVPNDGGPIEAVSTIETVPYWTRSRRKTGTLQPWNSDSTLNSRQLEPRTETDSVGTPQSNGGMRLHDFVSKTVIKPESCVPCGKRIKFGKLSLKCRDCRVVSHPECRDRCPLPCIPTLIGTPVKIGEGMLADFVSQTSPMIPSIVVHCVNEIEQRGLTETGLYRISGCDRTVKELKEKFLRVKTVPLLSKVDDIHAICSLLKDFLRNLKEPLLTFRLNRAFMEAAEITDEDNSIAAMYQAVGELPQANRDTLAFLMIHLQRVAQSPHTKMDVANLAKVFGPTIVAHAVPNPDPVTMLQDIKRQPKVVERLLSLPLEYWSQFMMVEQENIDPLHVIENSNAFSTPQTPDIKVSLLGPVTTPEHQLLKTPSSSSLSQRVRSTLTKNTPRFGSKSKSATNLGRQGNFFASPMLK

Large T antigen = Large T antigen (Simian virus 40, UniProt P03070); format: functional, Betapolyomavirus macacae;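 also: Confirmatory-stage PubChem screen for compounds that inhibit SV40 T antigen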
[17] = P. falciparum Dd2 growth inhibitors, dose response, SYBR Green, cherry-picked samples (AID 1159567); format: functional, cell-based

Luciferin 4-monooxygenase, sequence (P08659 whole entry): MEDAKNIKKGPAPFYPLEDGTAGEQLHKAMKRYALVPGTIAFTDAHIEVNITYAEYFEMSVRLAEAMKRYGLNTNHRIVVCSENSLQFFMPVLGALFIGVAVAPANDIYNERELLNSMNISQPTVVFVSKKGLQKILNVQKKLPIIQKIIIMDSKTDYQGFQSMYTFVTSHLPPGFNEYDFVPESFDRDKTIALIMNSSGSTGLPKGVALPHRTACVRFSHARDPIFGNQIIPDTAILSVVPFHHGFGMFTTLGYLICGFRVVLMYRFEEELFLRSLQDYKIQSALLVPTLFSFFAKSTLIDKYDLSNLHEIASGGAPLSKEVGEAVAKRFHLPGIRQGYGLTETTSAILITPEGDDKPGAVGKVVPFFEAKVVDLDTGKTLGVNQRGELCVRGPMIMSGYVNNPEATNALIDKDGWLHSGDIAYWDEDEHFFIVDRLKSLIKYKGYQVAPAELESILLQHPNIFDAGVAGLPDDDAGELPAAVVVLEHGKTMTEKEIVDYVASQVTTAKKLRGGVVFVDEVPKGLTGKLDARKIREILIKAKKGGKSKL
T2 sequence (P11940 whole entry, the tested form may be a part): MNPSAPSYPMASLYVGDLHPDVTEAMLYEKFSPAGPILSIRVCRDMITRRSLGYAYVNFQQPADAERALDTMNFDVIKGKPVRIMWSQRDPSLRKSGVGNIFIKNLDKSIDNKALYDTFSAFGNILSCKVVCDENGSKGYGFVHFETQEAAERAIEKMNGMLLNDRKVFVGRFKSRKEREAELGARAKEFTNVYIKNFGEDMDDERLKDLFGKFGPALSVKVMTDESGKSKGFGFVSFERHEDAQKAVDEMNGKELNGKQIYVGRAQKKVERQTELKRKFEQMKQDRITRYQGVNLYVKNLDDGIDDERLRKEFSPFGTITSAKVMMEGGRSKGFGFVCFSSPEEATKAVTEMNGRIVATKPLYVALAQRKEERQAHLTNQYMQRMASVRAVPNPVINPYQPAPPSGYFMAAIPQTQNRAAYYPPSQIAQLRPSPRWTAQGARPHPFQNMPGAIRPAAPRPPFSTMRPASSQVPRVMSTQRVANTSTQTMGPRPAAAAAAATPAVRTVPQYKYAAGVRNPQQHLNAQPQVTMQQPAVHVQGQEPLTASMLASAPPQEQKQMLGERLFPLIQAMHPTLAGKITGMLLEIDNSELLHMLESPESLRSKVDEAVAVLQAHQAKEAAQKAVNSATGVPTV
Genome polyprotein, sequence (P29990 2492-3391 limits assumed): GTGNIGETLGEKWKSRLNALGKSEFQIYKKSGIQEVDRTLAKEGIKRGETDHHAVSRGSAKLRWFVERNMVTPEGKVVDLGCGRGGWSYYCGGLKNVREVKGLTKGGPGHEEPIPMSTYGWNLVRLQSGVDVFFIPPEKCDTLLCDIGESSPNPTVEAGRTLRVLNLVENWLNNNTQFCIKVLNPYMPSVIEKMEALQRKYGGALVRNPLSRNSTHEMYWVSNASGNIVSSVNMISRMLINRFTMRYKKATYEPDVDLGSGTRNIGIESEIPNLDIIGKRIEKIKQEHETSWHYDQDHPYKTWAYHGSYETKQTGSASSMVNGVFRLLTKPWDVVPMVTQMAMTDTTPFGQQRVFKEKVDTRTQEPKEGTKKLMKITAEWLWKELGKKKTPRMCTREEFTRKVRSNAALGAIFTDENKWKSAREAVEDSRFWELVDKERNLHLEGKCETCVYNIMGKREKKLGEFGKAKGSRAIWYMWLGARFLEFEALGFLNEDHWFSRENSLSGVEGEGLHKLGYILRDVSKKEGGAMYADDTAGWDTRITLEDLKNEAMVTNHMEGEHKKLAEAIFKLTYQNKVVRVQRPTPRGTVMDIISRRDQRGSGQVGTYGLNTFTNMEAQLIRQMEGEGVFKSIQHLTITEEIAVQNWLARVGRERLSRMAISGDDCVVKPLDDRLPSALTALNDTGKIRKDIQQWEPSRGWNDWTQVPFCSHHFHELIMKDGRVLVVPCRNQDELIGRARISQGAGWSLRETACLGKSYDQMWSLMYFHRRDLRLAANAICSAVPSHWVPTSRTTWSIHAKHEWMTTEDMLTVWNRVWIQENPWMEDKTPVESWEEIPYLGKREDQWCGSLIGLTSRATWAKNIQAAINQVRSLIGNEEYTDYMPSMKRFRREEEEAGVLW
Nonstructural protein 1, sequence (Q194T2 whole entry): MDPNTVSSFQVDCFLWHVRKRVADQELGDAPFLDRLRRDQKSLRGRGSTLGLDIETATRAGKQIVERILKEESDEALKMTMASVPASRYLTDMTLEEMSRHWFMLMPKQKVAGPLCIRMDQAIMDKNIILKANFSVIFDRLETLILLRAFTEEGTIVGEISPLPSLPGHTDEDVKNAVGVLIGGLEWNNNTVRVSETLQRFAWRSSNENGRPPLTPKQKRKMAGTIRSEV
Large T antigen, sequence (P03070 whole entry): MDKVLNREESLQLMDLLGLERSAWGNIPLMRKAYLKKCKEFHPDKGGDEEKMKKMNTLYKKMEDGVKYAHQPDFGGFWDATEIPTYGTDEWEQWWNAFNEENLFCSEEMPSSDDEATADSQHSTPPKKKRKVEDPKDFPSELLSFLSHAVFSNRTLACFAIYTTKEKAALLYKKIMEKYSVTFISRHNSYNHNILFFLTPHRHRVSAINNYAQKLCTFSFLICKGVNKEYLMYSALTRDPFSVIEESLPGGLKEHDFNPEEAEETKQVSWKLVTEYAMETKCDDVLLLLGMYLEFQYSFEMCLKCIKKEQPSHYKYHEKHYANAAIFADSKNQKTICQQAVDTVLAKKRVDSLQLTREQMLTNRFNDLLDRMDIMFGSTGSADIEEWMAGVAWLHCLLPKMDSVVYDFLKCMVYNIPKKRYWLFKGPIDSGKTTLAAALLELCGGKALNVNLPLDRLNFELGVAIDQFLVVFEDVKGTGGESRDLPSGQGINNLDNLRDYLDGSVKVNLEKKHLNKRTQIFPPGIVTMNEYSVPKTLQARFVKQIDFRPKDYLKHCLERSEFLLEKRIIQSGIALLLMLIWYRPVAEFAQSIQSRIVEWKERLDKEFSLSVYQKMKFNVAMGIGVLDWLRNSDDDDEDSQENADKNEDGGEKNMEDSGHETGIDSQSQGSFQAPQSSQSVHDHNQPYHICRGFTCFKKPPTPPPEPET

CC(=O)N1c2ccc(S(=O)(=O)NCC3CCC(C(=O)N4CC(C)CC(C)C4)CC3)cc2CC1C (centres undefined)
EC50 [1]: > 120 µM (not active) | EC50 [2]: > 120 µM (not active) | EC50 [3]: > 120 µM (not active)

Cc1c(C(=O)OC(C)C)sc(NC(=O)c2cccnc2)c1C#N
IC50 [4]: 1.82 µM (active)

COc1ccc(CCNC(=O)c2ccc3c(c2)SC2=NS(=O)(=O)CCN23)cc1
EC50 [5]: > 112 µM (not active) | EC50 [6]: > 112 µM (not active)

CCCc1cc(NCC2CCCO2)n2c(nc3ccccc32)c1C#N (centres undefined)
IC50 [4]: 8.03 µM (active)

CC1CCCCC1NC(=O)Cn1nnc2ccccc2c1=O (centres undefined)
EC50 [1]: > 120 µM (not active) | EC50 [2]: > 120 µM (not active) | EC50 [3]: > 120 µM (not active)

Nc1nc2ncc(C(=O)c3cc(Cl)cc(Cl)c3O)cc2s1
IC50 (Genome polyprotein): > 100 µM (active)

CCn1nc([N+](=O)[O-])c(C(C#N)c2nc3ccccc3n2C)c(Cl)c1=O (centres undefined)
IC50 (Genome polyprotein): > 100 µM (active)

CCc1ccc(C(=O)NC(=S)Nc2ccc(N3CCOCC3)cc2)cc1
IC50 [7]: > 66 µM (inactive) | IC50 [8]: > 66 µM (inactive)

CCc1ccc(C(=O)COC(=O)CNC(=O)c2ccco2)cc1
EC50 [5]: > 112 µM (not active) | EC50 [6]: > 112 µM (not active)

COc1ccc(SC[C@H](C)CN2CC[C@H](C(C)(C)C)CCC2=O)cc1
IC50 [7]: > 66 µM (inactive) | IC50 [8]: > 66 µM (inactive)

COc1c(S(=O)(=O)NCCCN2CCOCC2)ccc(Cl)c1Cl
IC50 [7]: > 66 µM (inactive) | IC50 [8]: > 66 µM (inactive)

O=C(CCCn1nnc2ccccc2c1=O)N[C@H](C(=O)O)c1ccccc1
EC50 [5]: > 112 µM (not active) | EC50 [6]: > 112 µM (not active)

O=C(O)C1=CC[C@@H](c2ccc(Cl)cc2)N(S(=O)(=O)c2ccc(Cl)cc2)[C@H]1c1ccc(F)cc1
IC50 [4]: 13.2 µM (active)

COc1ccc(CNC(=O)c2cc(S(=O)(=O)N3CCCC3)cn2C)cc1
EC50 [5]: > 112 µM (not active) | EC50 [6]: > 112 µM (not active)

COc1ccc(NC(=O)c2cc([N+](=O)[O-])ccc2NC(=O)CNCc2ccccn2)c(OC)c1
IC50 (Nonstructural protein 1): 4.45 µM (active)

CCN1CCSc2ccc(C(=O)NCc3ccccc3C)cc21
EC50 [5]: > 112 µM (not active) | EC50 [6]: > 112 µM (not active)

COC(=O)C(O)(c1cn(C)c2ccccc12)C(F)(F)F (centres undefined)
EC50 [5]: > 112 µM (not active) | EC50 [6]: > 112 µM (not active)

c1ccc(CNc2nc3ccccc3n3cnnc23)cc1
EC50 [1]: 22.2 µM (active) | EC50 [2]: > 120 µM (not active) | EC50 [3]: > 120 µM (not active)

O=C(O)CN1C(=O)/C(=C\c2cc(Br)ccc2OCc2ccccc2F)SC1=S
IC50 (Genome polyprotein): 33.1 µM (active)

CC(C)c1ccccc1NC(=O)COC(=O)CCN1C(=O)/C(=C\C=C\c2ccccc2)SC1=S
EC50 [1]: 7.14 µM (active) | EC50 [2]: 1.54 µM (active) | EC50 [3]: 27.8 µM (active)

CCCCN1C2=NCCCN2c2cc(C)c(C)cc21
AC50 [9]: 0.803 µM (active) | AC50 [10]: 4.56 µM (active)

O=C1NC(=O)C(=Cc2coc3ccccc3c2=O)C(=O)N1
IC50 (Genome polyprotein): > 100 µM (active) | IC50 [4]: 15.1 µM (active)

COC(=O)c1ccc2c(=O)n(NC(=O)C(c3ccccc3)c3ccccc3)c(=S)[nH]c2c1
IC50 [7]: > 66 µM (inactive) | IC50 [8]: > 66 µM (inactive)

CC(C)(C)C(=O)/C(=C\c1ccc([N+](=O)[O-])cc1)n1cncn1
EC50 [11]: 1.29 µM (active) | EC50 [12]: 1.58 µM (active) | EC50 [5]: 5.77 µM (active) | EC50 [6]: > 112 µM (not active)

O=C(Nc1ccccc1)c1cccc(S(=O)(=O)NC2CCCC2)c1
IC50 [4]: 13.2 µM (active)

CCCCCCCCN1[C@@H](CC(=O)O)c2ccc(C(F)(F)F)cc2S1(=O)=O
IC50 [4]: 18.2 µM (active)

CCOC(=O)c1c(/N=C/c2cccc([N+](=O)[O-])c2O)sc(C)c1C
IC50 (Genome polyprotein): 77.1 µM (active) | IC50 [7]: 36.1 µM (inactive)

Fc1c(F)c(F)c(/C=N/NC(=S)Nc2cccnc2)c(F)c1F
IC50 [7]: > 66 µM (inactive) | IC50 [8]: > 66 µM (inactive)

O=C(C[C@@H]1CC[C@H](NC(=O)c2cccc(F)c2)[C@H](CO)O1)NCc1ccc(Oc2ccccc2)cc1
AC50 [13]: 28.5 µM (active) | AC50 [14]: 15.2 µM (active) | AC50 [15]: 27 µM (active)

COc1ccc(S(=O)(=O)N(C)C[C@@H]2Oc3ccc(NC(=O)Cn4cnnn4)cc3CC(=O)N([C@H](C)CO)C[C@@H]2C)cc1
AC50 [13]: 3.38 µM (active) | AC50 [14]: 3.68 µM (active) | AC50 [15]: 2.33 µM (active)

Cc1ccc(S(=O)(=O)Nc2ccc3c(c2)CC(=O)N([C@H](C)CO)C[C@H](C)[C@H](CN(C)S(=O)(=O)c2ccc(C)cc2)O3)cc1
AC50 [13]: 1.19 µM (active) | AC50 [14]: 4.36 µM (active)

Cc1c(NC(=S)N/N=C/c2ccc([N+](=O)[O-])cc2O)c(=O)n(-c2ccccc2)n1C
IC50 (Nonstructural protein 1): 5.14 µM (active)

Oc1ccc(/C=N/NC(=S)NCC2CCCO2)cc1 (centres undefined)
IC50 [16]: 30.8 µM (active) | IC50 (Large T antigen): 5.89 µM (active)

CN(C)c1ccc2c(c1)[C@H]1C[C@H](CC(=O)NCc3ccc(Oc4ccccc4)cc3)O[C@H](CO)[C@H]1O2
AC50 [17]: 10.5 µM (active)

COc1ccc2c3c([nH]c2c1)[C@H](CO)N(Cc1ccccc1OC)CC31CCN(S(=O)(=O)c2ccccc2)CC1
AC50 [17]: 6.43 µM (active)

CCCNC(=O)Nc1ccc2c(c1)OC[C@H](C)N(Cc1ccc(-c3ccccn3)cc1)C[C@H](C)[C@H](OC)CN(C)C2=O
AC50 [17]: 5.09 µM (active)

O=C(Nc1ccc(F)cc1)N1CCCCN2[C@H](C1)[C@H](c1ccc(C#Cc3ccccc3)cc1)[C@@H]2CO
AC50 [17]: 5.46 µM (active)

CO[C@H]1CN(C)C(=O)c2cc(NC(=O)Cc3ccccc3)ccc2OC[C@H](C)N(C(=O)c2ccccc2F)C[C@H]1C
AC50 [17]: 4.94 µM (active)
